Measured values as given in patent US20240248442A1, “COMPUTER-IMPLEMENTED METHOD FOR APPLYING A GLUTAMINE […] ON AN AG[…]” (BASF SE, priority 2021, published 2024).

System: GLXMA (Glycine max; soybean plant)
Test: Greenhouse spray test of glufosinate efficacy on soybean plants under different nitrogen supply
Assay type: in vivo
Details: GF-solution 280 g/l glufosinate-ammonium, 300 g a.i./ha, water rate 200 l/ha, assessed 3 and 7 daa (time of this value not stated)
Experimental: GLXMA (Glycine max; soybean plant) plants were grown on soil in a green house. Before separation into single pots plants were watered with demineralized water (VE-water). After separation into single pots and splitting into four different nourishing groups, the pots were individually watered with 50 ml of the respective nutrient solution. The following recipe for the full-nutrient solution (5 mM N) mentioned in the book “Diagnose des Ernährungszustandes von Kulturpflanzen”, ISBN: 978-3-86263-118-6, table 3-2, page 94 has been used:
Plants were grown until the growth stage GS 61 (58-74 cm), where first symptoms of nutrient deficiency became visible. This included yellowing of the leaves which were watered with N-deficient media.
A spray application was performed in a high speed spray cabin with the following settings: used nozzle: TT 110 02; pressure: 3 bar; speed: 1.33 m/s; temperature: 22° C.; relative spray humidity: 55%
Spray solution: A GF-solution comprising 280 g/l glufosinate-ammonium is sprayed with an a.i. dose rate of 300 g/ha and a water rate of 200 l/ha. The control plants were sprayed with water (ddH2O) only. After spraying, all plants were watered with VE-water. A biological assessment was performed 3 and 7 days after application (daa).
In other words, to achieve an N-deficiency, the plants were separated in four different groups, which were watered with 4 different nutrient solutions. The “full” medium contained a final concentration of 5 mM N nitrogen-sources, whereas the N-deficiency media contained either 0 mM N (“null” medium) or 1.25 mM N and 2.5 mM N (“deficiency” media). Nutrient deficiency became visible at the GS 61.
In FIGS. 2 and 3, GLXMA is Glycine max (soybean plant), G ai/ha is grams of active ingredient per hectare, CWD is the control group without treatment, GF-Solution is the solution comprising 280 g/l glufosinate-ammonium. At full (5 mM) or half full (2.5 mM) nitrogen supply was detected and rated to an average of 35. Lowering the nitrogen supply to a level of 1.25 mM increases the efficacy of glufosinate to 48, which is visibly by more chlorotic and necrotic tissue. Under complete nitrogen deficiency the symptoms are boosted and result in an average efficacy rating of 75.

## CP(=O)(O)CCC(N)C(=O)O (racemic) [glufosinate, (2RS)-2-amino-4-[hydroxy-(methyl)phosphinoyl]butyric acid]
Complete nitrogen deficiency (0 mM N)
  average efficacy rating (biological assessment): 75
Full (5 mM) nitrogen supply
  average efficacy rating (biological assessment): 35
Half full (2.5 mM) nitrogen supply
  average efficacy rating (biological assessment): 35
Nitrogen supply 1.25 mM
  average efficacy rating (biological assessment): 48
